# Values quoted from earlier work as cited in patent US6599527B1, “Preparation of pharmaceutical compositions” (Phares Pharmaceutical Research N.V., priority 1997, dated 2003).
# Details: in vivo
substance,measurement,value
phosphatidylcholine [phosphatidylcholine (PC)],fraction entering the GI tract that is absorbed,Over 90%
